Reference: the NIST ThermoML archive (doi:10.1021/je900387e)
Numbers after ± are expanded uncertainties.

Assay: xn = mol fraction of the nth substance listed
Conditions: Liquid, Pycnometric method

Cn1ccnc1 [1-methylimidazole] + O=C=O
Conditions	mass density [kg/m3]
313.1 K, 11200 kPa, x1 = 0.0247	802 ± 4
313.1 K, 11280 kPa, x1 = 0.0487	852 ± 4
313.1 K, 11440 kPa, x1 = 0.0487	855 ± 4
313.1 K, 11540 kPa, x1 = 0.0102	771 ± 4
313.1 K, 11540 kPa, x1 = 0.1024	928 ± 4
313.1 K, 11580 kPa, x1 = 0.0247	811 ± 4
313.1 K, 11620 kPa, x1 = 0.0487	858 ± 4
313.1 K, 11740 kPa, x1 = 0.1024	930 ± 4
313.1 K, 11790 kPa, x1 = 0.0487	860 ± 4
313.1 K, 11980 kPa, x1 = 0.0487	862 ± 4
313.1 K, 11990 kPa, x1 = 0.1024	933 ± 4
313.1 K, 12000 kPa, x1 = 0.0247	819 ± 4
313.1 K, 12070 kPa, x1 = 0.0102	786 ± 4
313.1 K, 12180 kPa, x1 = 0.0487	865 ± 4
313.1 K, 12320 kPa, x1 = 0.1024	936 ± 4
313.1 K, 12490 kPa, x1 = 0.0247	828 ± 4
313.1 K, 12620 kPa, x1 = 0.1024	939 ± 4
313.1 K, 12700 kPa, x1 = 0.0102	800 ± 4
313.1 K, 12970 kPa, x1 = 0.1024	942 ± 4
313.1 K, 13010 kPa, x1 = 0.0247	837 ± 4
313.1 K, 13280 kPa, x1 = 0.1024	944 ± 4
313.1 K, 13460 kPa, x1 = 0.0102	816 ± 4
313.1 K, 13600 kPa, x1 = 0.0247	846 ± 4
313.1 K, 13660 kPa, x1 = 0.1024	947 ± 4
313.1 K, 14020 kPa, x1 = 0.1024	950 ± 4
313.1 K, 14280 kPa, x1 = 0.0247	855 ± 4
313.1 K, 14340 kPa, x1 = 0.0102	832 ± 4
313.1 K, 14430 kPa, x1 = 0.1024	954 ± 4
313.1 K, 14780 kPa, x1 = 0.1024	956 ± 4
313.1 K, 14970 kPa, x1 = 0.0247	865 ± 4
313.1 K, 15010 kPa, x1 = 0.0102	842 ± 4
313.1 K, 15210 kPa, x1 = 0.1024	959 ± 4
313.1 K, 15360 kPa, x1 = 0.0247	870 ± 4
313.1 K, 15650 kPa, x1 = 0.1024	963 ± 4
313.1 K, 15790 kPa, x1 = 0.0247	875 ± 4
313.1 K, 16150 kPa, x1 = 0.1024	966 ± 4
313.1 K, 16220 kPa, x1 = 0.0247	880 ± 4
313.1 K, 16560 kPa, x1 = 0.1024	969 ± 4
313.1 K, 16690 kPa, x1 = 0.0247	885 ± 4
313.1 K, 17100 kPa, x1 = 0.1024	972 ± 4
313.1 K, 17540 kPa, x1 = 0.1024	975 ± 4
313.1 K, 18150 kPa, x1 = 0.1024	979 ± 4
313.1 K, 18570 kPa, x1 = 0.1024	981 ± 4
313.1 K, 18940 kPa, x1 = 0.1024	983 ± 4
317.9 K, 9730 kPa, x1 = 0.0102	555 ± 4
317.9 K, 9780 kPa, x1 = 0.0102	563 ± 4
317.9 K, 9850 kPa, x1 = 0.0102	573 ± 4
317.9 K, 9910 kPa, x1 = 0.0102	583 ± 4
317.9 K, 9990 kPa, x1 = 0.0102	594 ± 4
317.9 K, 10080 kPa, x1 = 0.0102	606 ± 4
317.9 K, 10180 kPa, x1 = 0.0102	618 ± 4
317.9 K, 10180 kPa, x1 = 0.0247	708 ± 4
317.9 K, 10300 kPa, x1 = 0.0102	630 ± 4
317.9 K, 10340 kPa, x1 = 0.0247	716 ± 4
317.9 K, 10440 kPa, x1 = 0.0102	643 ± 4
317.9 K, 10490 kPa, x1 = 0.0247	723 ± 4
317.9 K, 10620 kPa, x1 = 0.0102	656 ± 4
317.9 K, 10640 kPa, x1 = 0.0247	730 ± 4
317.9 K, 10810 kPa, x1 = 0.0102	670 ± 4
317.9 K, 10810 kPa, x1 = 0.0247	737 ± 4
317.9 K, 11000 kPa, x1 = 0.0247	744 ± 4
317.9 K, 11050 kPa, x1 = 0.0102	684 ± 4
317.9 K, 11220 kPa, x1 = 0.0247	751 ± 4
317.9 K, 11330 kPa, x1 = 0.0102	699 ± 4
317.9 K, 11460 kPa, x1 = 0.0247	758 ± 4
317.9 K, 11510 kPa, x1 = 0.0487	815 ± 4
317.9 K, 11590 kPa, x1 = 0.0487	817 ± 4
317.9 K, 11680 kPa, x1 = 0.0102	715 ± 4
317.9 K, 11700 kPa, x1 = 0.0487	820 ± 4
317.9 K, 11710 kPa, x1 = 0.0247	766 ± 4
317.9 K, 11820 kPa, x1 = 0.0487	822 ± 4
317.9 K, 11960 kPa, x1 = 0.0247	774 ± 4
317.9 K, 11970 kPa, x1 = 0.0487	825 ± 4
317.9 K, 12080 kPa, x1 = 0.0487	827 ± 4
317.9 K, 12100 kPa, x1 = 0.0102	731 ± 4
317.9 K, 12210 kPa, x1 = 0.0487	830 ± 4
317.9 K, 12290 kPa, x1 = 0.0247	781 ± 4
317.9 K, 12350 kPa, x1 = 0.0487	833 ± 4
317.9 K, 12480 kPa, x1 = 0.0487	836 ± 4
317.9 K, 12640 kPa, x1 = 0.0102	749 ± 4
317.9 K, 12640 kPa, x1 = 0.0487	838 ± 4
317.9 K, 12820 kPa, x1 = 0.0247	793 ± 4
317.9 K, 12930 kPa, x1 = 0.0487	843 ± 4
317.9 K, 13150 kPa, x1 = 0.1024	919 ± 4
317.9 K, 13260 kPa, x1 = 0.0102	766 ± 4
317.9 K, 13300 kPa, x1 = 0.0487	849 ± 4
317.9 K, 13400 kPa, x1 = 0.1024	922 ± 4
317.9 K, 13440 kPa, x1 = 0.0247	806 ± 4
317.9 K, 13660 kPa, x1 = 0.0487	854 ± 4
317.9 K, 13720 kPa, x1 = 0.1024	925 ± 4
317.9 K, 13980 kPa, x1 = 0.1024	927 ± 4
317.9 K, 14030 kPa, x1 = 0.0487	860 ± 4
317.9 K, 14060 kPa, x1 = 0.0102	785 ± 4
317.9 K, 14140 kPa, x1 = 0.0247	819 ± 4
317.9 K, 14310 kPa, x1 = 0.1024	930 ± 4
317.9 K, 14450 kPa, x1 = 0.0487	866 ± 4
317.9 K, 14560 kPa, x1 = 0.1024	933 ± 4
317.9 K, 14670 kPa, x1 = 0.0247	828 ± 4
317.9 K, 14710 kPa, x1 = 0.1024	934 ± 4
317.9 K, 14880 kPa, x1 = 0.1024	936 ± 4
317.9 K, 15050 kPa, x1 = 0.0102	806 ± 4
317.9 K, 15130 kPa, x1 = 0.1024	938 ± 4
317.9 K, 15280 kPa, x1 = 0.0247	837 ± 4
317.9 K, 15330 kPa, x1 = 0.1024	939 ± 4
317.9 K, 15480 kPa, x1 = 0.1024	941 ± 4
317.9 K, 15570 kPa, x1 = 0.0247	841 ± 4
317.9 K, 15630 kPa, x1 = 0.1024	942 ± 4
317.9 K, 15890 kPa, x1 = 0.0102	821 ± 4
317.9 K, 15920 kPa, x1 = 0.0247	846 ± 4
317.9 K, 15950 kPa, x1 = 0.1024	944 ± 4
317.9 K, 16260 kPa, x1 = 0.0247	851 ± 4
317.9 K, 16380 kPa, x1 = 0.1024	947 ± 4
317.9 K, 16620 kPa, x1 = 0.0247	855 ± 4
317.9 K, 16800 kPa, x1 = 0.1024	950 ± 4
317.9 K, 16910 kPa, x1 = 0.0102	837 ± 4
317.9 K, 17010 kPa, x1 = 0.0247	860 ± 4
317.9 K, 17180 kPa, x1 = 0.1024	953 ± 4
317.9 K, 17600 kPa, x1 = 0.1024	956 ± 4
317.9 K, 18050 kPa, x1 = 0.1024	959 ± 4
317.9 K, 18370 kPa, x1 = 0.1024	962 ± 4
317.9 K, 18750 kPa, x1 = 0.1024	964 ± 4
317.9 K, 18990 kPa, x1 = 0.1024	965 ± 4
322.7 K, 10720 kPa, x1 = 0.0102	558 ± 4
322.7 K, 10820 kPa, x1 = 0.0102	568 ± 4
322.7 K, 10930 kPa, x1 = 0.0102	578 ± 4
322.7 K, 11040 kPa, x1 = 0.0102	589 ± 4
322.7 K, 11140 kPa, x1 = 0.0102	600 ± 4
322.7 K, 11270 kPa, x1 = 0.0102	612 ± 4
322.7 K, 11430 kPa, x1 = 0.0102	624 ± 4
322.7 K, 11460 kPa, x1 = 0.0247	701 ± 4
322.7 K, 11570 kPa, x1 = 0.0247	706 ± 4
322.7 K, 11610 kPa, x1 = 0.0102	636 ± 4
322.7 K, 11730 kPa, x1 = 0.0247	712 ± 4
322.7 K, 11810 kPa, x1 = 0.0102	649 ± 4
322.7 K, 11910 kPa, x1 = 0.0247	719 ± 4
322.7 K, 12030 kPa, x1 = 0.0102	663 ± 4
322.7 K, 12090 kPa, x1 = 0.0247	726 ± 4
322.7 K, 12300 kPa, x1 = 0.0102	677 ± 4
322.7 K, 12300 kPa, x1 = 0.0247	733 ± 4
322.7 K, 12520 kPa, x1 = 0.0247	740 ± 4
322.7 K, 12640 kPa, x1 = 0.0102	692 ± 4
322.7 K, 12750 kPa, x1 = 0.0247	747 ± 4
